pIC50: −log10 of the molar value.
Target: T1, Serine/threonine-protein kinase DCLK1 (Homo sapiens, UniProt O15075)
T1 sequence (O15075 whole entry): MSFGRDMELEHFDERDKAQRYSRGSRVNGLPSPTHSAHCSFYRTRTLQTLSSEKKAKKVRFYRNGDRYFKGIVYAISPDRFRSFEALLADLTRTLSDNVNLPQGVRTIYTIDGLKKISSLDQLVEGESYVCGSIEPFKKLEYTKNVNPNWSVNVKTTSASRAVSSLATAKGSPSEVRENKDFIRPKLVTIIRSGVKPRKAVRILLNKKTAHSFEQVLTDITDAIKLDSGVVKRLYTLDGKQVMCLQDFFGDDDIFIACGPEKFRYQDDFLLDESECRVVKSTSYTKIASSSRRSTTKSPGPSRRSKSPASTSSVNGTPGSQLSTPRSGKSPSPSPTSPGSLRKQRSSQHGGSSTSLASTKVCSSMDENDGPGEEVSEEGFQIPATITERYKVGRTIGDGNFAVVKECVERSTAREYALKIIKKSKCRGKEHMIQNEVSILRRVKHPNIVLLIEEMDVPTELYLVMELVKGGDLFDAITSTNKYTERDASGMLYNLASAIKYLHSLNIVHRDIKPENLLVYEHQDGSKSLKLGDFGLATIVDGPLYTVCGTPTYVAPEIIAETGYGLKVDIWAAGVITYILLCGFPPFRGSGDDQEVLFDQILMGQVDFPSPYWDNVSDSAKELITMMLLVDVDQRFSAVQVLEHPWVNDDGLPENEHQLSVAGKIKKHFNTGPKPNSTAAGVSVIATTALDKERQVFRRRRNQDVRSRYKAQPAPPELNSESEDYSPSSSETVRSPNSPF
Assay: Inhibition of DCLK1 (unknown origin) preincubated for 10 mins followed by substrate/ATP addition measured after 60 mins by mobility shift assay

pIC50: 6.77
Structure (SMILES): COc1ccccc1Nc1nc(Nc2ccccc2S(=O)(=O)C(C)C)c2nc[nH]c2n1

Reference: ChEMBL document CHEMBL5634144, “Design, synthesis and biological evaluation of novel DCLK1 inhibitor containing purine skeleton for the treatment of pancreatic cancer” (Eur J Med Chem, 2023)
